These results are taken from PMC13313556, “Development and characterization of triazole-based WDR5 inhibitors for the treatment of glioblastoma” (JCI Insight, 2026).

For series [1], the system named is WDR5-target genes. As to the kind of experiment: RT-qPCR of WDR5-target genes in frozen DI318 flank tumor samples. Type of series: in vivo, NSG mice. The following applies: 30 mg/kg once a day i.p. over 7 days.
For series [2], the system named is DI318 flank PDX tumors. Put plainly: ELDA of cells dissociated from DI318 flank tumors. Type of series: in vivo, NSG mice. The following applies: 30 mg/kg once a day i.p. over 7 days. How it is done:
(§1) L0 and DI318 CSCs were split with Accutase as single cells into NBMc. In total, 200 μL of CSCs were seeded into each well of a 96-well TC treated plate (n = 10 well per density) at 50, 25, 13, 6, 3, and 1.5 cells/well. […] The stem cell frequency was quantified and treatments were compared with DMSO as described by Hu and Smyth ([98]).
(1 picture or pasted object on this page, not shown here)

Series [3] concerns RPS24, PYGL, CKMT1, SALL2, NID2, PYGB, RPL14 transcripts. As to the kind of experiment: RT-qPCR of WDR5-target genes in patient-derived CSCs (L0, L1, L2, DI318, 3832). In kind it is cell-based, human. The following applies: 72 hours. How it is done: Cells were harvested by centrifugation (5 minutes, 500g) into 2 mL Eppendorf Tubes and total RNA was purified on spin columns using the RNeasy Plus Kit (Qiagen, includes gDNA removal columns). In total, 2.5 μg of total RNA was treated with ezDNAse (Thermo Fisher) and then reverse transcribed with the SuperScript IV VILO RT Master Mix (Invitrogen). cDNA was diluted 1:100 in nuclease-free water and then transcripts were quantified using the PowerUp SYBR Green Master Mix (Thermo Fisher) on a QuantStudio 3 qPCR machine according to the manufacturer’s recommendations. Primer sets are provided in the Supporting Information. Raw Cq values were normalized per sample to the housekeeper ACTB and then the fold-change relative to DMSO treated cells was calculated as FC = 2^–ΔΔCq.
On the technique in general: Real-time PCR tracks product formation cycle by cycle.

The test system of series [4] is DI318 flank PDX tumors. As to the kind of experiment: DI318 flank xenograft, tumor volume. To be noted: 30 mg/kg once a day i.p. over 7 days. Type of series: in vivo, NSG mice.
Series [5] in a line: Brain homogenate binding. In kind it is in vitro ADME. The following applies: human brain homogenate; read-out: BHB %fu (h). The method, then: both the protein side and buffer side of the membrane after incubation and the parent compound was quantified. Brain homogenate binding was performed similarly as above using human brain homogenate, equilibrium dialysis, and LC-MS/MS methods. Fraction unbound is calculated by dividing the concentration of the buffer side by the concentration of the matrix side (plasma or brain). […]

Series [6] relates to DI318 CSCs. As to the kind of experiment: Extreme limiting dilution assay (ELDA) in DI318. Type of series: cell-based, human. The following applies: 14 days. How it is done: as §1
In series [7] the target is WDR5 (Homo sapiens, UniProt P61964). As to the kind of experiment: WDR5 live cell CETSA in intact L0 CSCs (melting curve, isothermal Kd, washout). Type of series: cell-based. Also on record: we first used a cellular thermal shift (CETSA) assay in intact L0 CSCs; endogenous in cells; host or cells: L0 patient-derived GBM CSCs. The method, then:
In total, 500,000 L0 CSCs, grown in suspension as spheroids, were split with Accutase and seeded in 1 mL of NBMc into each well of a 24-well dish. […] Cells were harvested by centrifugation (5 minutes, 500g) into SafeLock tubes (Eppendorf), washed once with 400 μL of PBS, and resuspended in 25 μL of CETSA Buffer (PBS + 1X Roche cOmplete Protease Inhibitor Cocktail + 3X Benzonase). […] One DMSO-treated sample was left unheated (representing 100% abundance i.e., fully bound) and 1 DMSO-treated sample was heated to 70°C (representing 0% abundance i.e., fully unbound). After heating, samples were lysed by 6X freeze-thaw cycles in LN2/hot water, rested for 10 minutes at room temperature, and then centrifuged for 30 minutes at > 14,000g at 4°C. 20 μL of the supernatant was transferred to a fresh tube into 5 μL of SDS-PAGE Loading Dye, boiled, and separated on 4%–20% Mini-PROTEAN Precast TGX Gels (Biorad). […] For CETSA washout experiments, a 10 cm dish with 6 × 10^6 to 8 × 10^6 L0 cells was treated for 2 hours with 5 μM compound or DMSO, washed 3 times with 15 mL of PBS (3 min, 400g), and split into 10 × 1 mL of fresh NBMc in a 24-well dish.

The subject of series [8] is intracranial L0 PDX tumors. Put plainly: Long-term intracranial L0 xenograft. In kind it is in vivo. To be noted: 30 mg/kg once a day i.p. The method, then:
Briefly, L0 cells were intracranial injected into 6–12 week old NSG mice. Once fully anesthetized, mice were secured into a stereotaxic apparatus and 20,000 L0 Cells were injected into the left hemisphere 0.5 mm rostral and 1.8 mm lateral to the b4regma with 3.5 mm depth from the scalp. […] Animals were monitored over time for the presentation of neurological and behavioral symptoms at which time the animals were humanely euthanized. Survival analysis was completed using PRISM 9.1.2 and comparison were made using Log-Rank (Mantel-Cox) test.

Series [9] deals with T1, P-glycoprotein (MDR1) (Homo sapiens, UniProt P08183).
T1 construct: host or cells: MDR1-MDCK cell monolayers
T1 sequence (P08183 whole entry): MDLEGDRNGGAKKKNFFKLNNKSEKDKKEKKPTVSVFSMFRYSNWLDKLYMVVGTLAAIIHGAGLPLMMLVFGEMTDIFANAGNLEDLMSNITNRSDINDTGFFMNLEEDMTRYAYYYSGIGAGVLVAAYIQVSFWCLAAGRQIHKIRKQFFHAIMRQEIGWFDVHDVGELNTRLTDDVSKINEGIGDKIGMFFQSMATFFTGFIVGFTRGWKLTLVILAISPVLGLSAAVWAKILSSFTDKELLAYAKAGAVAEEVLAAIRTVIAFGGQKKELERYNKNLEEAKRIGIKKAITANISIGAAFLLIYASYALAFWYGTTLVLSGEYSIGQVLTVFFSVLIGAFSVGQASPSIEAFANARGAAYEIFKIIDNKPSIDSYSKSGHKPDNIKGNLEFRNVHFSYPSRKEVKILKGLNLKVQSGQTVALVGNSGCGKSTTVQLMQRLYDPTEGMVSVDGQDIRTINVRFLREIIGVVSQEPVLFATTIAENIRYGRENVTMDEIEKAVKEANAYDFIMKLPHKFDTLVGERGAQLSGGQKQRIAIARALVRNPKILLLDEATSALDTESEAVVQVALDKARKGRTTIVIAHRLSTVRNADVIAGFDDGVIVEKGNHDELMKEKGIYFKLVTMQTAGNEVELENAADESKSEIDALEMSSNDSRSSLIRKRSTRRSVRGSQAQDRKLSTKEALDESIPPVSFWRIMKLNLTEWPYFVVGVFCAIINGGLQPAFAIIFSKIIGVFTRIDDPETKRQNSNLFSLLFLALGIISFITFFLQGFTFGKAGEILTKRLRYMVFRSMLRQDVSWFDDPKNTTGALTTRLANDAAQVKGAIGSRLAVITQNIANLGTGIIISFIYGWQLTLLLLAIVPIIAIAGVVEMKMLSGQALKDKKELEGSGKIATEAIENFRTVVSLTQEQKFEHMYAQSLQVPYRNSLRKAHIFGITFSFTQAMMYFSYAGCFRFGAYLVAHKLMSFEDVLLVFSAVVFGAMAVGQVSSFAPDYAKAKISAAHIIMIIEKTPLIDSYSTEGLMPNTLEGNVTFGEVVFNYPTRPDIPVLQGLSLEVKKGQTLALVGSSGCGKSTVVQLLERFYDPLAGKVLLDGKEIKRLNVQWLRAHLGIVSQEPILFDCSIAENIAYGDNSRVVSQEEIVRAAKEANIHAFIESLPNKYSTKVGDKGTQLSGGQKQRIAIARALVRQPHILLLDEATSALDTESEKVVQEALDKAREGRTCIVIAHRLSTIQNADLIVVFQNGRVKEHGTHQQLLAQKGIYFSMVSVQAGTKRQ
As to the kind of experiment: MDR1-MDCK permeability and efflux. The following applies: for Papp A→B at 120 min, 5 μM / Papp B→A at 120 min, 5 μM / recovery at 120 min, 5 μM: dog, MDCK-MDR1, pH 7.4, 5 μM. Type of series: in vitro ADME. How it is done: Test Direction Recovery Papp (10-6 cm/s) Efflux Brain
Article (%) R1 R2 AVG Ratio Penetration
Supplemental Figure 4. Blood-brain barrier (BBB) penetration potential using MDR1-MDCK cell monolayers. All P-glycoprotein (MDR1) permeability and efflux studies were conducted at Absorption Systems (parent company Pharmaron). In brief, MDR1-MDCK monolayers were grown to confluence on collagen-coated, microporous membranes in 12-well assay plates. The permeability assay buffer was Hanks’ balanced salt solution containing 10 mM HEPES and 15 mM glucose at a pH of 7.4. The buffer in the receiver chamber also contained 1% bovine serum albumin. The dosing solution concentration was 5 μM of test article in the assay buffer. Cell monolayers were dosed on the apical side (A-to-B) or basolateral side (B-to-A) and incubated at 37°C with 5% CO2 in a humidified incubator. Samples were taken from the donor and receiver chambers after 120 minutes. Each determination was performed in duplicate. The flux of lucifer yellow was also measured post-experimentally for each monolayer to ensure no damage was inflicted to the cell monolayers during the flux period. All samples were assayed by LC-MS/MS using electrospray ionization. Efflux ratio (ER) is defined as Papp (B-to-A) / Papp […]

In series [10] the test system is MV4:11. The following applies: read-out: MV4:11 GI50; cited from earlier work.

Where two headings read alike, the source gives them in different places. A value given as a limit tells only on which side of the number the result lay.

Usually IC50 stands for the concentration that inhibits the measured activity by half. For orientation: Kd means the concentration at which binding is half-saturated. On to `COc1cc(Cn2nnc3c2CCc2c(-c4cn(C)nc4C(F)(F)F)cc(Cn4ccnc4C)cc2-3)cc(OC)c1` [C3TD078], for which the “downregulation of WDR5-target genes in treated tumors” value in series [1] is reported as “did not downregulate WDR5-target genes in treated tumors”. The “effect on stem cell frequency of treated tumors” value in [2] is “did not reduce tumor growth or affect stem cell frequency”. In addition, the IC50 in series [3] (Homo sapiens, L0 and DI318, 5 genes, read-out: average IC50 of transcriptional downregulation (qPCR)) was determined as 80 nM. Further, the “PYGB expression log2FC” value in series [3] (L0, L2, DI318, 3832, 200 nM) is given as under 1.0. Besides, in series [3] (all 5 CSC models, 200 nM), the “PYGL and CKMT1 downregulation” value is listed as ~ 4 fold; the RPL14 expression entry is “unaffected”; the RPS24 downregulation was ~ 2 fold. In addition, the “effect on tumor growth” value in [4] is given as “did not reduce tumor growth”. In addition, in series [5], the fraction unbound at […] amounted to 0.004. Further, in series [6] (20 nM), the “DI318 ELDA stem cell frequency (1 in N)” value was determined as 1.6. Moreover, the “DI318 ELDA stem cell frequency (1 in N)” value in series [6] (200 nM) came to 2.1. The “DI318 ELDA stem cell frequency (1 in N)” value in series [6] (2000 nM) is recorded as 2.2. Further, in series [7] (L0 CSCs, 5 μM for 2 hours, then washout), the “time remaining bound to WDR5 after washout” value is reported as “at least 21 hours”. In addition, the Kd in series [7] (L0 CSCs, 2-hour pretreatment, isothermal 70°C) was determined as 2 nM.

For orientation: Papp A→B means how fast a substance crosses the layer from the apical side. Broadly, the Papp B→A is how fast a substance crosses the layer from the basolateral side. In the case of `COc1cc(Cn2nnc3c2CCc2c-3cc(Cn3ccnc3C)cc2C2CC2)ccc1F` [C3TD343], the fraction unbound at […] in [5] came to 0.005. The effect on survival entry in series [8] was “no effect on survival”. The tolerability result in series [8] (up to 71 days) is given as “well tolerated”. The “survival in L0 Intracranial Xenograft (Kaplan-Meier)” value in series [8] (vehicle 72 days) is recorded as 71 days. In addition, the “Brain Penetration Classification” value in [9] is given as “Low”. The “efflux by P-glycoprotein” value in series [9] (MDR1-MDCK permeability studies) is “strongly effluxed”. The apparent permeability from apical to basolateral (Papp A→B) at 120 min, 5 μM in series [9] (read-out: Papp A-to-B, AVG) was 0.113 ×10⁻⁶ cm/s; in series [9] (read-out: Papp A-to-B, R1) it was 0.131 ×10⁻⁶ cm/s; in series [9] (read-out: Papp A-to-B, R2), 0.0949 ×10⁻⁶ cm/s. Besides, the apparent permeability from basolateral to apical (Papp B→A) at 120 min, 5 μM in series [9] (read-out: Papp B-to-A, AVG) worked out at 43.3 ×10⁻⁶ cm/s; in [9] (read-out: Papp B-to-A, R1), 40.2 ×10⁻⁶ cm/s; in series [9] (read-out: Papp B-to-A, R2), 46.3 ×10⁻⁶ cm/s. The recovery at 120 min, 5 μM came out at 71.2% in series [9] (read-out: Recovery, A-to-B) and 76.8% in [9] (read-out: Recovery, B-to-A).

As a reminder, the GI50 is the concentration giving 50% growth inhibition. Usually ΔTm stands for the change in melting temperature against a reference sample. With `COc1cc(CN2CCc3c(cc(Cn4ccn(C)c4=N)cc3-c3ccc(F)cc3C)C2=O)cc(OC)c1` [C16, reference compound], the GI50 in series [10] is 38 nM. In addition, the “Brain Penetration Classification” value in series [9] is given as “Low”. Moreover, the apical-to-basolateral permeability (Papp A→B) at 120 min, 5 μM in series [9] (read-out: Papp A-to-B, AVG) turned out to be 0.715 ×10⁻⁶ cm/s; in series [9] (read-out: Papp A-to-B, R1) it was 0.556 ×10⁻⁶ cm/s; in series [9] (read-out: Papp A-to-B, R2), 0.875 ×10⁻⁶ cm/s. Further, the basolateral-to-apical permeability (Papp B→A) at 120 min, 5 μM in series [9] (read-out: Papp B-to-A, AVG) came to 1.7 ×10⁻⁶ cm/s; in [9] (read-out: Papp B-to-A, R1), 1.49 ×10⁻⁶ cm/s; in [9] (read-out: Papp B-to-A, R2), 1.91 ×10⁻⁶ cm/s. In addition, the recovery at 120 min, 5 μM in series [9] (read-out: Recovery, A-to-B) worked out at 85.6%; in [9] (read-out: Recovery, B-to-A), 87.3%. In addition, the shift in melting temperature (ΔTm) at 10 µM in series [7] (L0 cells, 10 μM, 2 hours) worked out at 35 °C.
